Key:
[1] = Inhibition of IL-6/JAK/STAT3 signalling pathway in HEK-blue IL-6 cells incubated for 16 hrs by SEAP reporter gene based QUANTI- blue assay; format: cell-based; conditions: Homo sapiens, HEK-Blue IL-6, 16 h
[2] = Cytotoxicity against HEK-Blue IL-6 cells; format: toxicity, cell-based; conditions: human
HepG2 [3] = experiment: Antitumor activity against human HepG2 cells assessed as reduction in cell viability incubated for 72 hrs by MTT assay; format: functional, cell-based; conditions: HepG2, 72 h
ECa-109 cell line = experiment: Antitumor activity against human EC109 cells assessed as reduction in cell viability incubated for 72 hrs by MTT assay; format: functional, cell-based; conditions: ECa-109, 72 h
[4] = Toxicity in BALB/c athymic nude mouse xenografted with human HepG2 cells assessed as decrease in body weight at 60 mg/kg, po administered daily for 24 days; format: organism-based; conditions: in vivo, 576 h, time 24 day
HepG2 [5] = experiment: Antitumor activity against human HepG2 cells xenografted in BALB/c athymic nude mouse assessed as tumor growth inhibition at 60 mg/kg, po administered daily for 24 days relative to control; format: functional; conditions: HepG2, 576 h, time 24 day, read-out: TGI

Row | IC50 [1] [µM] | IC50 (HepG2 [3]) [µM] | SMILES | IC50 [2] [µM] | IC50 (ECa-109 cell line) [µM] | Activity [4] | inhibition in vivo at 60 mg/kg (HepG2 [5]) [%]
1 | 2 | 6.12 | CCCn1c(-c2cccc(C)c2)nc2cc3nc(-c4cccc(C)c4)n(CCC)c3cc21 | > 10 | > 20 |  | 
2 | > 10 |  | CCCn1c(-c2scc3ccccc23)nc2cc3nc(-c4scc5ccccc45)n(CCC)c3cc21 | > 10 |  |  | 
3 | > 10 |  | CCCn1c(-c2cccc(OCC)c2)nc2cc3nc(-c4cccc(OCC)c4)n(CCC)c3cc21 | > 10 |  |  | 
4 | > 10 |  | CCCn1c(-c2ccc(C)nc2)nc2cc3nc(-c4ccc(C)nc4)n(CCC)c3cc21 | > 10 |  |  | 
5 | > 10 |  | CCCn1c(C2CCOC2)nc2cc3nc(C4CCOC4)n(CCC)c3cc21 (stereo unspecified) | > 10 |  |  | 
6 | 8.11 |  | CCCn1c(C2CCCCC2)nc2cc3nc(C4CCCCC4)n(CCC)c3cc21 | > 10 |  |  | 
7 | > 10 |  | CCCn1c(-c2cc(F)cc(F)c2)nc2cc3nc(-c4cc(F)cc(F)c4)n(CCC)c3cc21 | > 10 |  |  | 
8 | > 10 |  | CCCn1c(-c2cccn2C)nc2cc3nc(-c4cccn4C)n(CCC)c3cc21 | > 10 |  |  | 
9 | 2.89 | 17.9 | CCCn1c(-c2cccc(Cl)c2)nc2cc3nc(-c4cccc(Cl)c4)n(CCC)c3cc21 | > 10 | > 20 |  | 
10 | > 10 |  | CCCn1c(-c2cccc(Br)c2)nc2cc3nc(-c4cccc(Br)c4)n(CCC)c3cc21 | > 10 |  |  | 
11 | > 10 |  | CCCn1c(-c2nccs2)nc2cc3nc(-c4nccs4)n(CCC)c3cc21 | > 10 |  |  | 
12 | 10.3 |  | CCCn1c(-c2ccccc2F)nc2cc3nc(-c4ccccc4F)n(CCC)c3cc21 | > 10 |  |  | 
13 | > 10 |  | CCn1c(-c2cccc(F)c2)nc2cc3nc(-c4cccc(F)c4)n(CC)c3cc21 | > 10 |  |  | 
14 | 1.5 | > 20 | CCCn1c(-c2cccc(F)c2)nc2cc3nc(-c4cccc(F)c4)n(CCC)c3cc21 | > 10 | > 20 |  | 
15 | > 10 |  | CCCn1c(-c2ccc[nH]2)nc2cc3nc(-c4ccc[nH]4)n(CCC)c3cc21 | > 10 |  |  | 
16 | > 10 |  | CCCn1c(-c2ccc(C)o2)nc2cc3nc(-c4ccc(C)o4)n(CCC)c3cc21 | > 10 |  |  | 
17 | > 10 |  | CCCn1c(C2CC2)nc2cc3nc(C4CC4)n(CCC)c3cc21 | > 10 |  |  | 
18 | > 10 |  | CCCn1c(-c2ccc3cc[nH]c3c2)nc2cc3nc(-c4ccc5cc[nH]c5c4)n(CCC)c3cc21 | > 10 |  |  | 
19 | > 10 |  | CCCn1c(-c2ccc(F)c(C(F)(F)F)c2)nc2cc3nc(-c4ccc(F)c(C(F)(F)F)c4)n(CCC)c3cc21 | > 10 |  |  | 
20 | 7.21 | 13.2 | CCCn1c(-c2ccccc2)nc2cc3nc(-c4ccccc4)n(CCC)c3cc21 | > 10 | 12.6 |  | 
21 | > 10 |  | CCCn1c(-c2cccc(OC)c2)nc2cc3nc(-c4cccc(OC)c4)n(CCN(C)C)c3cc21 | > 10 |  |  | 

Row | IC50 [1] [µM] | IC50 (HepG2 [3]) [µM] | SMILES | IC50 [2] [µM] | IC50 (ECa-109 cell line) [µM] | Activity [4] | inhibition in vivo at 60 mg/kg (HepG2 [5]) [%]
22 | > 10 |  | CCCn1c(-c2ccc(F)cc2)nc2cc3nc(-c4ccc(F)cc4)n(CCC)c3cc21 | > 10 |  |  | 
23 | > 10 |  | Fc1cccc(-c2nc3cc4nc(-c5cccc(F)c5)n(C5CC5)c4cc3n2C2CC2)c1 | > 10 |  |  | 
24 | 7.85 |  | CCCCn1c(-c2cccc(F)c2)nc2cc3nc(-c4cccc(F)c4)n(CCCC)c3cc21 | > 10 |  |  | 
25 | > 10 |  | CCCn1c(-c2cc(C(C)(C)C)cc(C(C)(C)C)c2)nc2cc3nc(-c4cc(C(C)(C)C)cc(C(C)(C)C)c4)n(CCC)c3cc21 | > 10 |  |  | 
26 | > 10 |  | CCCn1c(-c2cc(OC)cc(OC)c2)nc2cc3nc(-c4cc(OC)cc(OC)c4)n(CCC)c3cc21 | > 10 |  |  | 
27 | 9.5 |  | CCCn1c(-c2cccc3ccccc23)nc2cc3nc(-c4cccc5ccccc45)n(CCC)c3cc21 | > 10 |  |  | 
28 |  |  | CNC(=O)c1cc(Oc2ccc(NC(=O)Nc3ccc(Cl)c(C(F)(F)F)c3)cc2)ccn1 [SORAFENIB] |  |  | Toxic | 88.4
29 | > 10 |  | CCCn1c(C2CCOCC2)nc2cc3nc(C4CCOCC4)n(CCC)c3cc21 | > 10 |  |  | 
30 | > 10 |  | CC(C)Cn1c(-c2cccc(F)c2)nc2cc3nc(-c4cccc(F)c4)n(CC(C)C)c3cc21 | > 10 |  |  | 
31 | > 10 |  | CCCn1c(-c2cncnc2)nc2cc3nc(-c4cncnc4)n(CCC)c3cc21 | > 10 |  |  | 
32 | > 10 |  | CCCn1c(-c2ccc(C(F)(F)F)cc2)nc2cc3nc(-c4ccc(C(F)(F)F)cc4)n(CCC)c3cc21 | > 10 |  |  | 
33 | > 10 |  | CCCn1c(-c2ccc(Cl)c(C(F)(F)F)c2)nc2cc3nc(-c4ccc(Cl)c(C(F)(F)F)c4)n(CCC)c3cc21 | > 10 |  |  | 
34 | > 10 |  | CCCn1c(-c2ccccc2)nc2cc3nc(-c4ccccc4)n(CCN(C)C)c3cc21 | > 10 |  |  | 
35 | 6.7 |  | CCCn1c(-c2cccc(C#N)c2)nc2cc3nc(-c4cccc(C#N)c4)n(CCC)c3cc21 | > 10 |  |  | 
36 | > 10 |  | CCCn1c(-c2cc(OC)c(OC)c(OC)c2)nc2cc3nc(-c4cc(OC)c(OC)c(OC)c4)n(CCC)c3cc21 | > 10 |  |  | 
37 | 8.89 |  | CCCn1c(-c2cccc(C(=O)OC)c2)nc2cc3nc(-c4cccc(C(=O)OC)c4)n(CCC)c3cc21 | > 10 |  |  | 
38 | 1.24 | > 20 | CCCn1c(-c2cccc(C(F)(F)F)c2)nc2cc3nc(-c4cccc(C(F)(F)F)c4)n(CCC)c3cc21 | > 10 | > 20 |  | 
39 | > 10 |  | CCCn1c(C2CCC2)nc2cc3nc(C4CCC4)n(CCC)c3cc21 | > 10 |  |  | 
40 | > 10 |  | CCCn1c(-c2cccc(OC)c2)nc2cc3nc(-c4cccc(OC)c4)n(C4CCN(C)CC4)c3cc21 | > 10 |  |  | 
41 | 10.2 |  | CCCn1c(-c2cccc(O)c2)nc2cc3nc(-c4cccc(O)c4)n(CCC)c3cc21 | > 10 |  |  | 

Row | SMILES | IC50 [1] [µM] | IC50 (HepG2 [3]) [µM] | IC50 [2] [µM] | IC50 (ECa-109 cell line) [µM] | Activity [4] | inhibition in vivo at 60 mg/kg (HepG2 [5]) [%]
42 | C[C@H]1COC2=C1C(=O)C(=O)c1c2ccc2c1CCCC2(C)C [CRYPTOTANSHINONE] | 6.61 | 29.2 | > 10 | 5.01 |  | 

Source: ChEMBL document CHEMBL5143695, “Benzobis(imidazole) derivatives as STAT3 signal inhibitors with antitumor activity” (Bioorg Med Chem, 2022)
